# Measurements reported in PubChem BioAssay (NCI).
#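 Test compounds were applied to cells in 96-well plates for 48 hours at 5 doses. Here, GI50 denotes the concentration required for 50% inhibition of growth. At the TGI there is no net growth.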
# Experiments:
# Assay in all cases: DTP human tumour cell line panel, 48 h
# HS 578T breast = tested on: HS 578T breast
# OVCAR-4 ovarian = tested on: OVCAR-4 ovarian
# MALME-3M melanoma = tested on: MALME-3M melanoma
# SK-MEL-5 melanoma = tested on: SK-MEL-5 melanoma
# SK-OV-3 ovarian = tested on: SK-OV-3 ovarian
# NCI-H23 lung = tested on: NCI-H23 lung
# T-47D breast = tested on: T-47D breast
# M14 melanoma = tested on: M14 melanoma
# CCRF-CEM leukemia = tested on: CCRF-CEM leukemia
# RXF 393 renal = tested on: RXF 393 renal
# SW-620 colon = tested on: SW-620 colon
# SF-295 CNS = tested on: SF-295 CNS
# UACC-257 melanoma = tested on: UACC-257 melanoma
# SNB-19 CNS = tested on: SNB-19 CNS
# UACC-62 melanoma = tested on: UACC-62 melanoma
# HCT-15 colon = tested on: HCT-15 colon
# A498 renal = tested on: A498 renal
# MOLT-4 leukemia = tested on: MOLT-4 leukemia
# MDA-MB-435 = tested on: MDA-MB-435
# HT29 colon = tested on: HT29 colon
# SF-539 CNS = tested on: SF-539 CNS
# OVCAR-8 ovarian = tested on: OVCAR-8 ovarian
# SNB-75 CNS = tested on: SNB-75 CNS
# OVCAR-5 ovarian = tested on: OVCAR-5 ovarian
# EKVX NSCLC = tested on: EKVX NSCLC
# IGROV1 ovarian = tested on: IGROV1 ovarian
# MCF7 breast = tested on: MCF7 breast
# MDA-MB-231 breast = tested on: MDA-MB-231 breast
# CAKI-1 renal = tested on: CAKI-1 renal
# RPMI-8226 leukemia = tested on: RPMI-8226 leukemia
# HL-60(TB) leukemia = tested on: HL-60(TB) leukemia
# KM12 colon = tested on: KM12 colon
# BT-549 breast = tested on: BT-549 breast
# PC-3 prostate = tested on: PC-3 prostate
# SK-MEL-2 melanoma = tested on: SK-MEL-2 melanoma
# NCI-H522 lung = tested on: NCI-H522 lung
# HOP-62 NSCLC = tested on: HOP-62 NSCLC
# U251 CNS = tested on: U251 CNS
# A549 NSCLC = tested on: A549 NSCLC
# COLO 205 colon = tested on: COLO 205 colon
# UO-31 renal = tested on: UO-31 renal
# SR leukemia = tested on: SR leukemia
# K-562 leukemia = tested on: K-562 leukemia
# DU-145 prostate = tested on: DU-145 prostate
# SN12C renal = tested on: SN12C renal
# LOX IMVI melanoma = tested on: LOX IMVI melanoma
# HOP-92 NSCLC = tested on: HOP-92 NSCLC
# TK-10 renal = tested on: TK-10 renal
# SK-MEL-28 melanoma = tested on: SK-MEL-28 melanoma
# NCI-H460 lung = tested on: NCI-H460 lung
# HCC-2998 colon = tested on: HCC-2998 colon
# SF-268 CNS = tested on: SF-268 CNS
# ACHN renal = tested on: ACHN renal
# HCT-116 colon = tested on: HCT-116 colon
# NCI/ADR-RES ovarian = tested on: NCI/ADR-RES ovarian
# OVCAR-3 ovarian = tested on: OVCAR-3 ovarian
# NCI-H226 lung = tested on: NCI-H226 lung
# 786-0 renal = tested on: 786-0 renal
smiles,measurement,setting,value
O=C1/C=C/[C@@H](O)[C@@H]2C[C@@H](O)C[C@H]2/C=C/CCC[C@H](CCc2ccccc2)O1,GI50,HS 578T breast,< 10 nM
same,TGI,HS 578T breast,21700 nM
same,GI50,OVCAR-4 ovarian,37.3 nM
same,TGI,OVCAR-4 ovarian,9480 nM
same,GI50,MALME-3M melanoma,23.1 nM
same,TGI,MALME-3M melanoma,85.4 nM
same,GI50,SK-MEL-5 melanoma,< 10 nM
same,TGI,SK-MEL-5 melanoma,16.8 nM
same,GI50,SK-OV-3 ovarian,34.3 nM
same,TGI,SK-OV-3 ovarian,27000 nM
same,GI50,NCI-H23 lung,33.4 nM
same,TGI,NCI-H23 lung,285 nM
same,GI50,T-47D breast,48.3 nM
same,TGI,T-47D breast,30700 nM
same,GI50,M14 melanoma,26.4 nM
same,TGI,M14 melanoma,10700 nM
same,GI50,CCRF-CEM leukemia,39.1 nM
same,TGI,CCRF-CEM leukemia,> 59400 nM
same,GI50,RXF 393 renal,< 10 nM
same,TGI,RXF 393 renal,< 21.2 nM
same,GI50,SW-620 colon,28.7 nM
same,TGI,SW-620 colon,84.7 nM
same,GI50,SF-295 CNS,38 nM
same,TGI,SF-295 CNS,> 50000 nM
same,GI50,UACC-257 melanoma,37.5 nM
same,TGI,UACC-257 melanoma,21700 nM
same,GI50,SNB-19 CNS,51.4 nM
same,TGI,SNB-19 CNS,> 88100 nM
same,GI50,UACC-62 melanoma,46.7 nM
same,TGI,UACC-62 melanoma,9000 nM
same,GI50,HCT-15 colon,34.3 nM
same,TGI,HCT-15 colon,13000 nM
same,GI50,A498 renal,< 11.8 nM
same,TGI,A498 renal,40.9 nM
same,GI50,MOLT-4 leukemia,36 nM
same,GI50,MDA-MB-435,36.5 nM
same,TGI,MDA-MB-435,14000 nM
same,GI50,HT29 colon,31.5 nM
same,TGI,HT29 colon,470 nM
same,GI50,SF-539 CNS,53.2 nM
same,TGI,SF-539 CNS,> 66500 nM
same,GI50,OVCAR-8 ovarian,29.4 nM
same,TGI,OVCAR-8 ovarian,12700 nM
same,GI50,SNB-75 CNS,< 12.4 nM
same,TGI,SNB-75 CNS,33800 nM
same,GI50,OVCAR-5 ovarian,57.3 nM
same,TGI,OVCAR-5 ovarian,> 100000 nM
same,GI50,EKVX NSCLC,36.9 nM
same,TGI,EKVX NSCLC,14600 nM
same,GI50,IGROV1 ovarian,40.2 nM
same,TGI,IGROV1 ovarian,13200 nM
same,GI50,MCF7 breast,23.4 nM
same,TGI,MCF7 breast,55.1 nM
same,GI50,MDA-MB-231 breast,20.4 nM
same,TGI,MDA-MB-231 breast,42.7 nM
same,GI50,CAKI-1 renal,36.1 nM
same,TGI,CAKI-1 renal,3650 nM
same,GI50,RPMI-8226 leukemia,41.4 nM
same,TGI,RPMI-8226 leukemia,5310 nM
same,GI50,HL-60(TB) leukemia,30.7 nM
same,TGI,HL-60(TB) leukemia,128 nM
same,GI50,KM12 colon,< 10 nM
same,TGI,KM12 colon,26.3 nM
same,GI50,BT-549 breast,48.5 nM
same,TGI,BT-549 breast,14300 nM
same,GI50,PC-3 prostate,44.4 nM
same,TGI,PC-3 prostate,24800 nM
same,GI50,SK-MEL-2 melanoma,31.8 nM
same,TGI,SK-MEL-2 melanoma,100 nM
same,GI50,NCI-H522 lung,41.2 nM
same,TGI,NCI-H522 lung,200 nM
same,GI50,HOP-62 NSCLC,37.1 nM
same,TGI,HOP-62 NSCLC,20500 nM
same,GI50,U251 CNS,40.6 nM
same,TGI,U251 CNS,30100 nM
same,GI50,A549 NSCLC,40.8 nM
same,TGI,A549 NSCLC,> 100000 nM
same,GI50,COLO 205 colon,19.7 nM
same,TGI,COLO 205 colon,36.9 nM
same,GI50,UO-31 renal,31.7 nM
same,TGI,UO-31 renal,13400 nM
same,GI50,SR leukemia,35 nM
same,GI50,K-562 leukemia,38.4 nM
same,TGI,K-562 leukemia,22700 nM
same,GI50,DU-145 prostate,49.9 nM
same,TGI,DU-145 prostate,> 100000 nM
same,GI50,SN12C renal,37.3 nM
same,TGI,SN12C renal,14100 nM
same,GI50,LOX IMVI melanoma,21.1 nM
same,TGI,LOX IMVI melanoma,48 nM
same,GI50,HOP-92 NSCLC,31 nM
same,TGI,HOP-92 NSCLC,396 nM
same,GI50,TK-10 renal,34.8 nM
same,TGI,TK-10 renal,206 nM
same,GI50,SK-MEL-28 melanoma,< 10 nM
same,TGI,SK-MEL-28 melanoma,45.6 nM
same,GI50,NCI-H460 lung,38.9 nM
same,TGI,NCI-H460 lung,15700 nM
same,GI50,HCC-2998 colon,29.6 nM
same,TGI,HCC-2998 colon,994 nM
same,GI50,SF-268 CNS,22.9 nM
same,TGI,SF-268 CNS,7380 nM
same,GI50,ACHN renal,37.1 nM
same,TGI,ACHN renal,> 100000 nM
same,GI50,HCT-116 colon,23.1 nM
same,TGI,HCT-116 colon,54.9 nM
same,GI50,NCI/ADR-RES ovarian,28.9 nM
same,TGI,NCI/ADR-RES ovarian,823 nM
same,GI50,OVCAR-3 ovarian,25.4 nM
same,TGI,OVCAR-3 ovarian,61.1 nM
same,GI50,NCI-H226 lung,17.9 nM
same,TGI,NCI-H226 lung,74.8 nM
same,GI50,786-0 renal,12.5 nM
same,TGI,786-0 renal,45.3 nM
